Earlier results in PubChem BioAssay AID1259409 (Chemical Carcinogenesis Research Information System (CCRIS), 2018).

Tested on: rodent chemically induced tumor inhibition, incidence and multiplicity
Assay: CCRIS tumor inhibitor studies
Settings: Species: RAT

| Structure (SMILES) | tumour outcome (control, treated, inhibition, significance) (Carcinogen: AZOXYMETHANE [25843-45-2], Dose [Inhibitor]: 200 PPM IN DIET FOR 4 WK BEGINNING 1 WK PRIOR TO FIRST CARCINOGEN DOSE (STUDY DURATION: 35 WK), Route [Inhibitor]: ORAL, Strain/Sex: F344/MALE, Target Tissue: Type of Lesion: COLON: ADENOMA, Dose [Carcinogen]: 15 MG/KG BW 1X/WK FOR 3 WK (STUDY DURATION: 35 WK), Promoter: NONE) | tumour outcome (control, treated, inhibition, significance) (Carcinogen: AZOXYMETHANE [25843-45-2], Dose [Inhibitor]: 200 PPM IN DIET FOR 4 WK BEGINNING 1 WK PRIOR TO FIRST CARCINOGEN DOSE (STUDY DURATION: 35 WK), Route [Inhibitor]: ORAL, Strain/Sex: F344/MALE, Target Tissue: Type of Lesion: COLON: CARCINOMA, Dose [Carcinogen]: 15 MG/KG BW 1X/WK FOR 3 WK (STUDY DURATION: 35 WK), Promoter: NONE) | tumour outcome (control, treated, inhibition, significance) (Carcinogen: AZOXYMETHANE [25843-45-2], Dose [Inhibitor]: 200 PPM IN DIET FOR 4 WK BEGINNING 1 WK PRIOR TO FIRST CARCINOGEN DOSE (STUDY DURATION: 35 WK), Route [Inhibitor]: ORAL, Strain/Sex: F344/MALE, Target Tissue: Type of Lesion: SMALL INTESTINE: CARCINOMA, Dose [Carcinogen]: 15 MG/KG BW 1X/WK FOR 3 WK (STUDY DURATION: 35 WK), Promoter: NONE) | tumour outcome (control, treated, inhibition, significance) (Carcinogen: 7,12-DIMETHYLBENZ[A]ANTHRACENE, 57-97-6, Dose [Inhibitor]: 0, 200 MG/KG BW/D FOR 3 WK BEGINNING 2 WK PRIOR TO CARCINOGEN DOSE (STUDY DURATION: 24 WK), Route [Inhibitor]: INTRAPERITONEAL, Strain/Sex: SPRAGUE-DAWLEY/FEMALE, Target Tissue: Type of Lesion: MAMMARY GLAND: TUMOR, Dose [Carcinogen]: 33.3 MG/KG BW IN 0.25 ML CORN OIL ONCE AT 50 D OF AGE, Promoter: NONE USED) |
| --- | --- | --- | --- | --- |
| O=C1C=CC(=O)c2c(O)cccc21 | 6/28 (21%), 4/30 (13%), 38%, not significant | 8/28 (29%), 11/30 (37%), -28%, not significant | 7/28 (25%), 2/30 (7%), 72%, p<0.05 |  |
| CC(C)(C)c1cc(CO)cc(C(C)(C)C)c1O |  |  |  | 91%, 81%, 11%, not significant |
